Counter-ions that a name gives are not always drawn.
What was measured:
[1] = system: luciferase reporter under methylated CMV promoter in KG-1 leukemia cells; assay: CMV-luc assay in KG-1 cells; type: cell-based; settings: KG-1 CMV-luc, vs DMSO
Method: The assay was carried out as described by Rilova et al.. The KG-1 cell line was stably transfected with the luciferase firefly (Luc^+ from pGL3 by Promega, Madison, WI, USA) reporter gene under the control of a methylated CMV promoter (from pEGFP-N1 by Clontech) and selected for the maintenance of the methylation of CMV and luciferase expression silencing (KG-1 CMV-luc). The stably integrated KG-1 CMV-luc cells are cultivated in RPMI-1640 medium (Lonza, Strasbourg, France), supplemented with 10% FCS (Lonza, Strasbourg, France) and 0.5 mg/mL of geneticin (Sigma-Aldrich, Saint-Quentin Fallavier, France), under 5% CO2, at 37 °C and seeded at 20,000 cells per well in 96-well plates. After 5 or 24 h of incubation in the presence of compounds or the solvent DMSO, the induction of the promoter is measured by quantification of luciferase with the Brite-lite assay system (PerkinElmer, Villebon-sur-Yvette, France) according to the manufacturer’s protocol. The luminescence is measured on an EnVision Multilabel Plate Reader (PerkinElmer, Villebon-sur-Yvette, France), and the data are expressed as fold induction compared to DMSO control. The mean of 2–4 experiments and its standard error are reported.

[2] = system: methylated UCHL1 promoter (pUCHL1) in HCT116 cells; assay: UCHL1 promoter demethylation assay (EGFP induction, FACS); type: cell-based, human; settings: HCT116, 5 µM, five days
Method: The assay was performed as described in [29]. Briefly, human colon cancer HCT116 (ATCC, VA, USA) cells were grown in Dulbecco’s Modified Eagle Medium (DMEM; Euroclone, Milan, Italy) supplemented with 10% fetal bovine serum (FBS; Euroclone, Milan, Italy), 2 mM L-glutamine (Euroclone), and antibiotics (100 U/mL penicillin, 100 µg/mL streptomycin) (Euroclone). The pUMLIEP vector (composed by MetLuc-IRES-EGFP construct upon the control of the ubiquitin carboxyl-terminal hydrolase L1 (UCHL1)) was linearized and methylated by with ClaI and SssI-methylase enzymes (New England Biolabs, Milan, Italy). After, methylated pUMLIEP was transfected into HCT116 cells following the protocol described in [30]. […] On day 5, cells were observed under by a fluorescent microscope (Cytation 5 Cell Imaging Multi-Mode Reader (BioTeK Milan, Italy) and BD Accuri flow cytometers. Nuclei were counterstained with DAPI (10 µg/mL, Invitrogen, Tournai, Belgium).

[3] = biological target: T1, C-terminal catalytic domain of human DNMT3A (hDNMT3A) (Homo sapiens, UniProt Q9Y6K1); assay: DNMT3A restriction-based fluorescence assay; type: biochemical; settings: mean of at least two independent experiments; read-out: Enzyme Inhibition (EC50 ± SD) hDNMT3A
T1 construct: the C-terminal catalytic domain of human DNMT3A (hDNMT3A)
T1 sequence (Q9Y6K1 634-912 limits assumed): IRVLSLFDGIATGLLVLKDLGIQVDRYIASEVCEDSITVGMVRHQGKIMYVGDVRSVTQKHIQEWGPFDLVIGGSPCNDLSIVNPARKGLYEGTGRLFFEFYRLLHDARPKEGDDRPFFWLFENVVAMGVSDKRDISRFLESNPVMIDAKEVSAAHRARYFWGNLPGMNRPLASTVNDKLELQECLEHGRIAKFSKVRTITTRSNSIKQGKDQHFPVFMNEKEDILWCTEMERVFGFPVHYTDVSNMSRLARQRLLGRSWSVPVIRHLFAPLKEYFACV
Method: DNMT3A enzyme inhibition was adapted from the restriction-based fluorescence assay protocol described in Ceccaldi et al.. Briefly, a biotin-labelled oligonucleotide at the 5’ end is hybridized to his complementary strand labelled at the 3’ end with 6-carboxyfluorescein. The DNA duplex containing only one single CpG site overlapping with a restriction site of a methylation sensitive restriction enzyme is transferred in the wells coated with avidin. The methylation reaction is performed by adding human C-terminal DNMT3A at the final concentration of 4 ng/µL in a total volume of 50 µL in the presence of the inhibitors at various concentrations and the co-substrate SAM at the final concentration of 20 µM. The plate was incubated for 1 h at 37 °C, washed, and added with the methylation sensitive restriction enzyme HpyCH4IV, incubated for 1 h further at 37 °C, washed and the fluorescence measured with a PerkinElmer Envision Multilabel Plate Reader. The data are expressed as percentage of inhibition vs. log concentration (M). Data are normalized referring to the “restriction control” (wells coated with labelled duplex not treated nor exposed to DNMT3A, but only cleaved by HpyCH4IV) as the maximum of inhibition (100%) and to the “DMSO control” (wells coated with labelled duplex but treated just with 0.1% DMSO exposed to DNMT3A and then to HpyCH4IV) as the minimum of inhibition (0%; total methylation).

HL60 APL cells = assay: Antiproliferative activity, MTT; type: cell-based; settings: Homo sapiens, HL-60, 48 h treatment, read-out: Antiproliferative Activity (IC50 ± SD) HL60
Method: (§1) U937 histiocytic lymphoma, HL60 acute promyelocytic leukemia, H1299 lung adenocarcinoma, MCF7 breast carcinoma, HT1080 fibrosarcoma, M14 melanoma, HeLa epithelial cervix carcinoma and peripheral blood B lymphocyte AHH1 human cell lines were obtained from the Deutsche Sammlung für Mikroorganismen and Zellkulturen (DSZM, Braunschweig, Germany) and were maintained in RPMI 1640 medium contained 10% fetal bovine serum (FBS), 2 mM L-glutamine, and antibiotics in a humidified atmosphere with 5% CO2 at 37 °C. HCT116 (ATCC, VA, USA) cells were propagated in Dulbecco’s modified Eagle medium (DMEM) (Euroclone, Milan, Italy) with 10% fetal bovine serum (FBS; Euroclone, Milan, Italy), 2 mM L-glutamine (Euroclone, Milan, Italy), and antibiotics (100 U/mL penicillin, 100 µg/mL streptomycin) (Euroclone, Milan, Italy). The experiments were performed with early (3–20) cell passages. Cell lines were treated with compounds at the indicated concentrations in the exponential growth phase.
(§2) Then, increasing concentrations of different compounds (ranging from 0.01 to 100 μM) were added, and cell proliferation was evaluated by a MTT assay after 48 h. Cells exposed to DMSO were used as control. The effect of compounds was evaluated using the CellTiter-Glo luminescent cell viability assay (Promega, Madison, WI, USA) according to the manufacturer’s instructions. For HCT116, 5 × 10^4 cells/well were plated in 24-well plate and treated, in duplicate, with compounds at several concentrations for 24 and 48 h of induction. After treatments, MTT solution was added for 3 h at 0.5 mg/mL, the obtained crystals were dissolved in DMSO (Sigma-Aldrich, Milan, Italy), and the absorbance was read at a wavelength of 570 nm with reader TECAN M-200. All the experiments were performed in triplicate and repeated at least three times.
(§3) IC50 values of compounds against cellular viability were determined by using nonlinear regression fitting curves with GraphPad Prism 8. The t-test used for statistical analyses was performed with GraphPad Prism 8. All the tests were one-tailed and a p-value < 0.05 was considered statistically significant.

U937 AML cells = assay: Antiproliferative activity, MTT; type: cell-based; settings: Homo sapiens, U-937, 48 h treatment, read-out: Antiproliferative Activity (IC50 ± SD) U937
Method: as §1, §2, §3

U937 cells = assay: Sub-G1 peak, cell cycle flow cytometry; type: cell-based, human; settings: U937, 1 µM, 24 and 48 h
Method: Cell cycle analysis was performed on 5 × 10^5 fixed cells resuspended in a RNase A (3 mg/mL) and propidium iodide (PI) solution (1 mg/mL). Samples were analyzed with a C6 Accuri BD (Becton Dickinson & Co., San Jose, CA, USA). The percentage of apoptosis was measured analyzing sub-G1 peaks. Apoptotic cell death was also evaluated by using annexin V–fluorescein isothiocyanate (FITC) apoptosis kit (BD Bioscience) and assayed according to the manufacturer’s instructions. Cells double-stained for both annexin V and PI were analyzed by flow cytometry. PI was used in conjunction with annexin V–FITC to distinguish cells in the earlier stages of apoptosis (annexin V-FITC positive, PI negative) from those in later stages of apoptosis or that were already dead (annexin V–FITC positive, PI positive). Percentage of cells positive for caspase-3 activation was evaluated by Active Caspase-3 Apoptosis Kit (BD biosciences, Milan, Italy) according to the manufacturer’s instructions.

[4] = system: H1299 human non-small cell lung carcinoma; assay: Antiproliferative activity, MTT; type: cell-based; settings: Homo sapiens, NCI-H1299, 48 h, 48 h treatment, read-out: Antiproliferative Activity (IC50 ± SD) H1299
Method: as §1, §2, §3

[5] = system: HCT116 human colorectal carcinoma; assay: Antiproliferative activity, MTT; type: cell-based; settings: HCT-116, 48 h treatment, read-out: Antiproliferative Activity (IC50 ± SD) HCT116
Method: as §1, §2, §3

[6] = system: HT1080 human fibrosarcoma; assay: Antiproliferative activity, MTT; type: cell-based; settings: HT-1080, 48 h treatment, read-out: Antiproliferative Activity (IC50 ± SD) HT1080
Method: as §1, §2, §3

[7] = system: HeLa epithelial cervix carcinoma; assay: Antiproliferative activity, MTT; type: cell-based; settings: Homo sapiens, 48 h treatment, read-out: Antiproliferative Activity (IC50 ± SD) HeLa
Method: as §1, §2, §3

M14 human melanoma = assay: Antiproliferative activity, MTT; type: cell-based; settings: 48 h treatment, read-out: Antiproliferative Activity (IC50 ± SD) M14
Method: as §1, §2, §3

F21T G-quadruplex DNA = assay: FRET melting assay, G-quadruplex DNA; type: binding
Method: (§4) Experimental procedure for Fluorescence Resonance Energy Transfer (FRET) melting assay Oligonucleotides labeled at 5’ with FAM (6-carboxyfluorescein) as donor fluorophore and TAMRA (6 - carboxytetramethylrhodamine) at 3’ as the acceptor fluorophore were purchased from STAB VIDA (Portugal). Each oligonucleotide was initial ly diluted to 100 µM in water (Molecular Biology Reagent, Sigma). Stock solutions of 20 µM and subsequent dilutions were made with FRET buffer (60 mM KCl, potassium cacodylate, pH 7.4). Tagged oligonucleotides at 0.4 µM were annealed by heating at 90 -95 °C for 10 min, followed by slow cooling to room temperature. St ock solutions of compounds (1 mM) were prepared in 10% DMSO. Subsequent dilutions were performed using FRET buffer. Annealed DNA (50 µL) and test compound solutions (50 µL) were distributed across 96-well RT-PCR plates (PCR-96-FLT-C, Axygen, Inc). Fluorescence readings (performed in a 7300 RT -PCR equipment from Applied Biosystems) were taken at intervals of 0.5 °C in the range 31 –95 °C, with the temperature being maintained for 30 seconds prior to each reading. Experiments were performed in triplicate. Fina l analysis of the data was carried out with GraphPad Prism v.5.0 (GraphPad Software Inc., La Jolla, CA, USA).
(§5) The advanced curve-fitting function in GraphPad Prism (nonlinear regression fit) was used for calculation of ΔTm values. Only results with fitting r2 values > 0.75 (std error < 0.25) were considered.
(§6) Table S2. Synthetic oligonucleotides used in FRET experiments.

KRAS21R G-quadruplex DNA = assay: FRET melting assay, G-quadruplex DNA; type: binding
Method: as §4, §5, §6

SMILES | EC50 [3] | IC50 (HL60 APL cells) | IC50 (U937 AML cells) | melting point | further results
Nc1ncn([C@H]2C[C@H](O)[C@@H](CO)O2)c(=O)n1 [DAC, 5-aza-2′-deoxycytidine, reference compound] | – | – | – | – | Luciferase Expression (Fold ± SD) ([1]; 0.5 µM): 18.13 ± 5.52 fold; Luciferase Expression (Fold ± SD) ([1]; 1 µM): 19.80 ± 3.88 fold; Luciferase Expression (Fold ± SD) ([1]; 5 µM): 23.82 ± 5.44 fold; Luciferase Expression (Fold ± SD) ([1]; 10 µM): 20.96 ± 4.02 fold; pUCHL1 demethylation, EGFP-positive cells (FACS R1) [2]: 46.6%
Cc1cc(Nc2cccc(NC(=O)c3cccc(CNc4ccnc5ccccc45)c3)c2)nc(N)n1 [Compound 1a] | 21 ± 3.1 µM | 18.1 ± 2.4 µM | 1.4 ± 0.2 µM | 153 to 155 °C | –
Cc1cc(Nc2cccc(NCc3cccc(Nc4ccnc5ccccc45)c3)c2)nc(N)n1 [Compound 1f] | 12 ± 3 µM | 1.9 ± 0.1 µM | 4.4 ± 0.7 µM | 98 to 100 °C | –
Cc1cc(Nc2cccc(C(=O)Nc3cccc(Nc4ccnc5ccccc45)c3)c2)nc(N)n1 [Compound 1e] | 21 ± 4 µM | 9.9 ± 1.1 µM | 4.8 ± 0.6 µM | 227 to 229 °C | –
Cc1cc(NCc2cccc(NC(=O)c3cccc(Nc4ccnc5ccccc45)c3)c2)nc(N)n1 [Compound 1d] | 51 ± 10 µM | 67 ± 7.4 µM | 67 ± 8.8 µM | 260 to 262 °C | –
Cc1cc(Nc2cccc(CNC(=O)c3cccc(Nc4ccnc5ccccc45)c3)c2)nc(N)n1 (as salt: hydrochloride) [Compound 1c] | – | – | – | 183 to 185 °C | –
O=C(Nc1cccc(NC(=O)c2cccc(Nc3ccnc4ccccc34)c2)c1)OCc1ccccc1 [Compound 4b] | 13 ± 1.4 µM | 1.9 ± 0.3 µM | 3.2 ± 0.6 µM | – | effect on sub-G1 peaks vs untreated cells (U937 cells): remarkable increase; IC50 [4]: 40 ± 4.8 µM; IC50 [5]: 20.5 ± 2.8 µM; IC50 [6]: 13.1 ± 1.5 µM; IC50 [7]: 65 ± 7.3 µM; IC50 (M14 human melanoma): 15.3 ± 2 µM; F21T ∆Tm (F21T G-quadruplex DNA; 5 µM): 3.8 ºC; F21T ∆Tm (F21T G-quadruplex DNA; 10 µM): 1.5 ºC; KRAS ∆Tm (KRAS21R G-quadruplex DNA; 5 µM): 2.8 ºC; KRAS ∆Tm (KRAS21R G-quadruplex DNA; 10 µM): 2.5 ºC
C[n+]1ccc(-c2c3nc(c(-c4cc[n+](C)cc4)c4ccc([nH]4)c(-c4cc[n+](C)cc4)c4ccc([nH]4)c(-c4cc[n+](C)cc4)c4nc2C=C4)C=C3)cc1 [Py4P, reference compound] | – | – | – | – | F21T ∆Tm (F21T G-quadruplex DNA; positive control at 1 µM): 21.2 ºC; KRAS ∆Tm (KRAS21R G-quadruplex DNA; positive control at 1 µM): 18.8 ºC
Cc1cc(Nc2cccc(NC(=O)Cc3cccc(Nc4ccnc5ccccc45)c3)c2)nc(N)n1 [Compound 1b] | 19 ± 2 µM | 40 ± 5 µM | 37 ± 5.9 µM | 163 to 165 °C | –
Cc1cc(Nc2ccc(NC(=O)c3cccc(Nc4cc(C)nc(N)n4)c3)cc2)nc(N)n1 [Compound 3a] | 41 ± 10 µM | 83 ± 10.2 µM | 52.4 ± 7.6 µM | 218 to 220 °C | –
Cc1cc(Nc2ccc(C(=O)Nc3cccc(Nc4cc(C)nc(N)n4)c3)cc2)nc(N)n1 [Compound 3c] | 13 ± 0.9 µM | 125 ± 16.2 µM | 66 ± 9.2 µM | 292 to 294 °C | –
Cc1cc(Nc2cccc(NC(=O)c3cccc(Nc4cc(C)nc(N)n4)c3)c2)nc(N)n1 [Compound 3b] | > 100 µM | 225 ± 28.5 µM | 123 ± 15 µM | 105 to 107 °C | –

Source: publication PMC7073229, “Novel Quinoline Compounds Active in Cancer Cells through Coupled DNA Methyltransferase Inhibition and Degradation” (Cancers, 2020)
